{"source": "ChEMBL document CHEMBL1121493", "about": "“Folate analogues altered in the C9-N10 bridge region. 16. Synthesis and antifolate activity of 11-thiohomoaminopterin” (J Med Chem, 1980)", "key": {"[1]": {"target": "Reduced folate carrier (Homo sapiens)", "assay": "Ability to compete with methotrexate transport in human HeLa cells was determined", "details": "read-out: I50"}, "Dihydrofolate reductase [2]": {"target": "Dihydrofolate reductase (Lactobacillus casei, UniProt P00381)", "sequence (P00381 whole entry)": "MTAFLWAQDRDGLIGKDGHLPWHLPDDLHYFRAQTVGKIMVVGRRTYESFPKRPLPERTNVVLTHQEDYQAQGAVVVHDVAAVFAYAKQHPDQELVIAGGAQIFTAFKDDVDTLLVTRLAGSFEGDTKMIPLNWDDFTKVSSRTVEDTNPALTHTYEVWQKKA", "assay": "Ability to inhibit Lactobacillus casei dihydrofolate reductase in vitro was determined"}, "Thymidylate synthase": {"target": "T1, Thymidylate synthase (Lactobacillus casei, UniProt P00469)", "T1 sequence (P00469 whole entry)": "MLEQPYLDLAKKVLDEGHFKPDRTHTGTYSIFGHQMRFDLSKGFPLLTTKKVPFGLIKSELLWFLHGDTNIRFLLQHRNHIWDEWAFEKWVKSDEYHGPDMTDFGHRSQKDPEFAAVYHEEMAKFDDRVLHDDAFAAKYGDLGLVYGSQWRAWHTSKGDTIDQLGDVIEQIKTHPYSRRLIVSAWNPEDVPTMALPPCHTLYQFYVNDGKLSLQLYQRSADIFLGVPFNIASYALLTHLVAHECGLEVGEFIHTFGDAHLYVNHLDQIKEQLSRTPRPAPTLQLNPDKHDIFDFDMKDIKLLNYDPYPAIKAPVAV", "assay": "Ability to inhibit Lactobacillus casei thymidylate synthase in vitro was determined", "parameters": "species or system Lacticaseibacillus casei", "details": "read-out: I50"}, "[3]": {"target": "Reduced folate carrier (Homo sapiens)", "assay": "Ability to compete with methotrexate transport in human HeLa cells was determined", "details": "read-out: I50", "remark": "listed apart in the source"}, "Enterococcus faecium [4]": {"system": "Enterococcus faecium", "assay": "The compound was tested for inhibition of growth of Streptococcus faecium (ATCC 8043) at 2.0 ng/ml", "format": "functional"}, "Lacticaseibacillus casei [5]": {"system": "Lacticaseibacillus casei", "assay": "(§1) The compound was tested for inhibition of growth of Lactobacillus casei (ATCC 7469) at 0.1 ng/ml", "format": "functional"}, "Dihydrofolate reductase [6]": {"target": "T2, Dihydrofolate reductase (Homo sapiens, UniProt P00374)", "T2 sequence (P00374 whole entry)": "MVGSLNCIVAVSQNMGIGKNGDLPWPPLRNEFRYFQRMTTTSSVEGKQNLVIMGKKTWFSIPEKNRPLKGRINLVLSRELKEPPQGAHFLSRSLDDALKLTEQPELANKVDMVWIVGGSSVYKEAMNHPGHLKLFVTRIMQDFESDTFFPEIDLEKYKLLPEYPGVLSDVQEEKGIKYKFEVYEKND", "assay": "Ability to inhibit human HeLa cell dihydrofolate reductase in vitro was determined"}, "Lacticaseibacillus casei [7]": {"system": "Lacticaseibacillus casei", "assay": "as §1", "format": "functional, organism-based", "details": "read-out: I 50"}, "Enterococcus faecium [8]": {"system": "Enterococcus faecium", "assay": "The compound was tested for inhibition of growth of Streptococcus faecium (ATCC 8043) at 0.1 ng/ml", "format": "functional, organism-based", "details": "read-out: I 50"}, "Lacticaseibacillus casei [9]": {"system": "Lacticaseibacillus casei", "assay": "The compound was tested for inhibition of growth of Lactobacillus casei at 0.1 ng/ml (ATCC 7469)", "format": "functional, organism-based", "details": "read-out: I 50"}}}
{"compound": "Nc1nc(N)c2nc(CSc3ccc(C(=O)NC(CCC(=O)O)C(=O)O)cc3)cnc2n1", "note": "(stereo unspecified)", "values": [{"measurement": "IC50", "setting": "[1]", "value": 2.7, "unit": "µM"}]}
{"compound": "Nc1nc(N)c2nc(CCSc3ccc(C(=O)NC(CCC(=O)O)C(=O)O)cc3)cnc2n1", "note": "(stereo unspecified)", "values": [{"measurement": "IC50", "setting": "Dihydrofolate reductase [2]", "value": 0.4, "unit": "µM"}, {"measurement": "IC50", "setting": "Thymidylate synthase", "value": 60, "unit": "µM"}, {"measurement": "IC50", "setting": "[3]", "value": 25, "unit": "µM"}, {"measurement": "inhibition at 0.002 µg/mL", "setting": "Enterococcus faecium [4]", "value": 50, "unit": "%"}, {"measurement": "inhibition at 0.0001 µg/mL", "setting": "Lacticaseibacillus casei [5]", "value": 50, "unit": "%"}]}
{"compound": "Nc1nc(N)c2nc(COc3ccc(C(=O)NC(CCC(=O)O)C(=O)O)cc3)cnc2n1", "note": "(stereo unspecified)", "values": [{"measurement": "IC50", "setting": "Dihydrofolate reductase [6]", "value": 0.74, "unit": "µM"}]}
{"compound": "Nc1nc(N)c2nc(CCSc3ccc(C(=O)O)cc3)cnc2n1", "values": [{"measurement": "IC50", "setting": "Lacticaseibacillus casei [7]", "value": 0.1, "unit": "µg/mL"}, {"measurement": "IC50", "setting": "Enterococcus faecium [8]", "value": 0.1, "unit": "µg/mL"}]}
{"compound": "COC(=O)c1ccc(SCCc2cnc3nc(N)nc(N)c3n2)cc1", "values": [{"measurement": "IC50", "setting": "Enterococcus faecium [8]", "value": 0.016, "unit": "µg/mL"}, {"measurement": "IC50", "setting": "Lacticaseibacillus casei [9]", "value": 0.4, "unit": "µg/mL"}]}
